# Ends that are not written are not given here.
# What was measured:
# [1] = tested on: SARS-CoV-2 M protein level; format: cell-based, human
# TOMM22 level = format: cell-based, human; conditions: for effects of SQSTM1 on TOMM22 degradation: PDPK1-KO HEK293T, even in the presence of PDPK1, Mdivi-1 2.5 μM, CQ 50 μM, wortmannin 5 μM, 4 h (Fig 2G)
# binding of SQSTM1 to M = format: cell-based, human
# [2] = tested on: binding of SQSTM1 to TOMM22; format: cell-based, human
# MAVS level = format: cell-based, human
# [3] = tested on: phosphorylation of SQSTM1 at T138; format: cell-based, human
# mitophagy = format: cell-based, human
# IFNB1 mRNA expression [4] = format: cell-based, human
# IFNB1 mRNA expression [5] = format: cell-based, human; remark: listed apart in the source
# IFNB1 mRNA expression [6] = tested on: IFNB1 mRNA expression; design: species or system mice; conditions: mouse, in vivo
# PEDV [7] = format: cell-based
# PEDV [8] = format: cell-based; remark: listed apart in the source
# GFP-SQSTM1 = GFP-SQSTM1 (Homo sapiens, UniProt Q13501); assay: biochemical; format: binding
# IFNB1 mRNA expression [9] = format: cell-based, human; conditions: HEK293T, presence vs absence of poly (I:C); P = 0.001 (Fig 6A)
# [10] = biological target: GFP-PDPK1 (human (cloned from HEK293T cells)) (UniProt O15530); assay: MST
# Chain of GFP-PDPK1 (human (cloned from HEK293T cells)) (O15530 whole entry): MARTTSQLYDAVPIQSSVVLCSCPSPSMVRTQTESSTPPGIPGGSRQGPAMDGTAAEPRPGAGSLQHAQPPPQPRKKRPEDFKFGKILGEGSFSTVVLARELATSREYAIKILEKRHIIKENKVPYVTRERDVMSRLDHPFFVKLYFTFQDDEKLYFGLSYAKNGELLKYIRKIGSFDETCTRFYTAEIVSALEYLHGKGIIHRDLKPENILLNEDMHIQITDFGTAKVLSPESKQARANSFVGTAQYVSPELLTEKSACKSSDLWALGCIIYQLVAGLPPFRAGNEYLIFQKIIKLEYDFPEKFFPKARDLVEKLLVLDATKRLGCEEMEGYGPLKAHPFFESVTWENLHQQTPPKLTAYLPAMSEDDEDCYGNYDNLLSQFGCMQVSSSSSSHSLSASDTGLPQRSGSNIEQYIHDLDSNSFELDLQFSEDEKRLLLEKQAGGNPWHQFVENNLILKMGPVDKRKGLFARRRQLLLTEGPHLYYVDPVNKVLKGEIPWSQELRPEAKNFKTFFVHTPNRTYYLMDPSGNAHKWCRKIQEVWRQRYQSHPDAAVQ
molecule,measurement,setting,value
"CCN(CC)CCCC(C)Nc1ccnc2cc(Cl)ccc12 (stereo not drawn) [CQ, chloroquine]",effects of SQSTM1 on M degradation,[1],completely abolished
same,effects of SQSTM1 on TOMM22 degradation,TOMM22 level,completely abolished
NCC(=O)Nc1ccc(-n2nc(C(F)(F)F)cc2-c2ccc3c(ccc4ccccc43)c2)cc1 [OSU-03012],binding of SQSTM1 to M,binding of SQSTM1 to M,increased
same,binding of SQSTM1 to TOMM22,[2],decreased
same,M levels,[1],further decreased
same,levels of TOMM22 decreased by PM or M expression,TOMM22 level; Fig 5B,restored
same,TOMM22 levels,"TOMM22 level; SQSTM1-KO cells with SQSTM1 expression, compared with control group (Fig S2J)",restored
same,levels of MAVS decreased by PM or M expression,MAVS level,restored
same,M/PM-induced phosphorylation of SQSTM1 at T138,[3],inhibited
same,phosphorylation of SQSTM1 at T138,[3],blocked
same,decrease in GFP fluorescence of RFP-GFP-Mito caused by SQSTM1 expression,mitophagy,reversed the decrease
same,"effect of M on the shift in the green signal to a red signal (RFP-GFP-Mito, mitophagy)",mitophagy,reversed
same,IFNB1 expression during PEDV infection in cells,IFNB1 mRNA expression [4],restored
same,IFNB1 expression during VSV-M infection in cells,IFNB1 mRNA expression [5],restored
same,IFNB1 expression in lungs of VSV-M-infected mice,IFNB1 mRNA expression [6],restored
same,PEDV M protein expression during PEDV infection,PEDV [7],reduced
same,PEDV replication / viral titer (TCID50) in cells,PEDV [8],attenuated
COC[C@H]1OC(=O)c2coc3c2[C@@]1(C)C1=C(C3=O)[C@@H]2CCC(=O)[C@@]2(C)C[C@H]1OC(C)=O [wortmannin],effects of SQSTM1 on M degradation,[1],completely abolished
same,effects of SQSTM1 on TOMM22 degradation,TOMM22 level,completely abolished
Mdivi-1,effects of SQSTM1 on M degradation,[1],not M degradation
same,effects of SQSTM1 on TOMM22 degradation,TOMM22 level,only blocked
SMWSFNPETN [M-CD],Kd,GFP-SQSTM1,115 ± 28 nM
poly (I:C),IFNB1 mRNA expression,IFNB1 mRNA expression [9],substantially increased
unlabeled M-β3-5 (MST ligand) (from UniProt P0DTC5 1-222) (domain or fragment),Kd,[10],71 nM

# — article PMC11484861 (Nature Communications, 2024)
